These results are taken from patent US20240336658A1, “CYCLIC PEPTIDE AND PREPARATION METHOD AND USE THEREOF” (HANGZHOU HUIBO SCIENCE AND TECHNOLOGY CO., LTD, priority 2021, published 2024).

In data set [1] the test system is full-thickness skin defect wound surfaces. In words: Effects of cyclic peptide Hst1 on wound repair in mice (Example 10): healing rate, HE/Masson histology, CD31/VEGF immunohistochemistry. The data set is classed as in vivo, C57 BL/6 mice. The conditions noted are these: day 10, Masson staining; 0.1 μM Click-Histatin1, 0.1 μM Sortase A-cyclic histatin1, 10 μM Histatin1. As to the method:
This example adopted the propargylglycine-Hst1 cyclic peptide (Click-Histatin1) provided in Example 1, a cyclized Hst1 (Sortase A-cyclic histatin1) prepared by the Sortase A enzymatic method provided in Example 4, and a linear peptide Hst1 (Histatin1) to conduct animal experiments to observe the effect of the propargylglycine-Hst1 on the healing rates of the wound surfaces of mice. The concentration of the linear peptide Hst1 was 10 μM, the concentration of the propargylglycine-Hst1 cyclic peptide was 0.1 μM, and the concentration of the cyclized Hst1 prepared by the Sortase A enzymatic method was each 0.1 μM. 12 healthy male special pathogen-free grade C57 BL/6 mice (purchased from Guangdong Experimental Animal Center) of 6-8 weeks old and weighing 22-28 g. They were intraperitoneally injected with 5 ml/kg of 1% pentobarbital sodium for anesthesia. After the mice had no corneal reflex, the hair on their backs was carefully removed and disinfected with alcohol. […] full-thickness skin defect wound surfaces were prepared on the back of each mouse by using a circular skin punch. The 12 mice were divided into a Control (blank) group with 3 mice, a 10 μM linear peptide Hst1 (Histatin1) group with 3 mice, a 0.1 μM propynylglycine-Hst1 cyclic peptide (Click-Histatin1) group with 3 mice, and a 0.1 μM cyclized Hst1 prepared by a Sortase A enzymatic method (Sortase A-cyclic histatin1) group with 3 mice, according to a random number table method. Each wound surface was added with 0.5 ml of four drugs respectively, and administration was conducted every day until the wound surfaces of the experimental groups healed. Photographs were taken on days 0, 3, 5, 7, and 10 after surgery, and wound tissues were sampled on day 10 for subsequent pathological staining. On days 0, 3, 5, 7, and 10 after injury, the general condition of wound healing of the mice was observed and photographed with a digital camera (see FIG. 4), and the wound healing rate was calculated (see FIG. 5). Wound healing rate=(wound area immediately after injury−unhealed wound area at each time point)[…]wound area immediately after injury×100%. The wound specimens were fixed in 4% paraformaldehyde for 48 hours, rinsed with tap water for 10 minutes, dehydrated with graded ethanol, permeabilized with xylene, and embedded in paraffin to prepare 4 μm thick sections. Some sections were taken for HE staining and Masson staining, and observed for the thickness of the granulation tissue, the length of the dermal gap, and the newly grown collagen of the wound surface under an inverted fluorescence microscope at 40×, 100×, 200×, and 400× respectively (see FIGS. 6 and 7). 5 sections were taken from each mouse, and 5 fields of view were selected for each section. Data analysis was performed using the software Image-pro Plus. […] It was added with a rabbit anti-mouse CD31 primary antibody (with a dilution ratio of 1:300) and a mouse anti-VEGF (with a dilution ratio of 1:100), incubated overnight at 4° C., and washed with PBS. […] It was subjected to DAB development, hematoxylin counterstaining. gradient ethanol dehydration, xylene permeabilization, and resin blocking. 5 sections were taken from each mouse, and 5 fields of view were selected for each section. The sections were observed under a 400× inverted fluorescence microscope, and analyzed for the number of CD31-positive blood vessels (see FIG. 8) and VEGF expression amounts (see FIG. 9, shown in brown) by using Image-pro Plus software. The measurement data were expressed by M±SD, and the data were analyzed by one-way analysis of variance (ANOVA) and an independent samples T-test with SPSS 20.0 software to detect whether the differences among the groups were statistically significant, and a Bonferroni test was used for pairwise comparison. *p<0.05. **p<0.01. ***p<0.001 meant the difference was statistically significant, and p>0.05 was not statistically significant.

A further data set relates to fibroblasts (NIH/3T3). In words: Scratching experiment, Hst1 cyclic peptides (Examples 11 and 12). Format: cell-based. The conditions noted are these: dosage needed to achieve the same pharmaceutical effect in the scratch experiment. As to the method:
At the same time, fibroblasts (NIH/3T3; GNM 6; Chinese Academy of Sciences, China) were plated into a 6-well plate at a number of 2×10^6/well and cultured to a density of 70-80%. The cells were starved for 8-12 hours before the experiment. Mitomycin C (Sigma Aldrich, USA) was added into the culture medium to make its concentration in the culture medium be 15 μg/ml, and the culture medium was changed after 3 hours of treatment. Scratching was conducted with a 200 μl pipette tip perpendicular to the bottom of the well-plate with the same force, and the well-plate was rinsed with PBS twice after scratching. Each well was added with an appropriate amount of a DEME medium (10% FBS, 1% double antibody), and except for the blank control group, each well was added with 10 μM of the linear Hst1, 0.01 μM of the propynylglycine-Hst1 cyclic peptide, 0.1 μM of the propynylglycine-Hst1 cyclic peptide and 1 μM of the propynylglycine-Hst1 cyclic peptide as experimental groups. At 0 hour, the cells in each group were photographed by using a microscope (Olympus, Japan). […] The scratched area of each group was calculated by using imageJ (Rawak Software, Inc. Germany) software, and the scratch area at 0 hour was an initial scratch area. The scratch healing rate was calculated as follows: […]

A short description of data set [2]: Solubility of prepared cyclic peptide. Format: physicochemical.

Consider “Sortase A-cyclic histatin1: cyclized Hst1 prepared by the literature Sortase A enzymatic method (Bolscher, FASEB Journal) (DSHEKRHHGYRRKFHEKHHSHREFPFYGDYGSNYLYDN; Histatin-1 cyclized via sortase A; UniProt P15515 20-57, looked up) [reference compound]”, for which, in data set [1], the “expression amount of collagen at the wound surfaces” value is “significantly higher than that of the Control group”. Further, the “Dosage of agents required for scratch test” value in the data set on fibroblasts (NIH/3T3) is 0.12 µM. For the same substance, the solubility entry in data set [2] was “poor solubility”.
